One assay relates to HCV 1b_Huh-Luc/Neo-ET cell line persistently expressing a bicistronic genotype 1b replicon in Huh 7 cells. Description: HCV replicon assay (luciferase readout, 72 h). The assay is classed as cell-based, HCV genotype 1b. To be noted: Hepatitis C virus, Huh-7, 72 h, read-out: Inhibition of HCV genotype 1b. An outline of the steps: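 EC50 values come from a four-parameter fit of luciferase signal as % of untreated control, repeated across several determinations. The signal is from the HCV 1b_Huh-Luc/Neo-ET replicon line, dosed in triplicate one day post-plating and incubated 72 h before Bright-Glo readout.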
In general terms: A replicon is a self-replicating genome or part of one, used to study replication in cells.
As for `CC(=O)N[C@@H](C(=O)N1CCC[C@H]1c1ncc(C#Cc2ccc(-c3cnc([C@@H]4CCCN4C(=O)[C@H](NC(C)=O)c4ccccc4)[nH]3)cc2)[nH]1)c1ccccc1` [Compound 109], the EC50 was below 1 nM.
For the molecule `COC(=O)N[C@@H](C(=O)N1CCC[C@H]1c1ncc(-c2ccc(C#Cc3ccc(-c4cnc([C@@H]5CCCN5C(=O)[C@H](NC(=O)OC)c5ccccc5)[nH]4)cc3)cc2)[nH]1)c1ccccc1` [Compound 156], the EC50 is below 1 nM.
Turning to `COC(=O)N[C@@H](C(=O)N[C@@H](C)c1ncc(-c2ccc(C#Cc3ccc(-c4cnc([C@H](C)NC(=O)[C@H](NC(=O)OC)C(C)C)[nH]4)cc3)cc2)[nH]1)C(C)C` [Compound 950], the EC50 is below 1 nM.
Same read-out and setting: the figure for `CCN(CC)[C@@H](C(=O)N1CCC[C@H]1c1ncc(-c2ccc(C#Cc3ccc(-c4cnc([C@@H]5CCCN5C(=O)[C@@H](NC(=O)OC)C(C)C)[nH]4)cc3)cc2)[nH]1)c1ccccc1` [Compound 985] is below 1 nM; for `COC(=O)N[C@H](C(=O)N1CCC[C@H]1c1nc2ccc3cc(C#Cc4ccc(-c5cnc([C@@H]6CCCN6C(=O)[C@@H](NC(=O)OC)C6CCOCC6)[nH]5)cc4F)ccc3c2[nH]1)C(C)C` [Compound 1099] it is below 1 nM.
As to `C[C@H](NC(=O)[C@@H]1CCCN1C(=O)[C@H](NC(=O)OC(C)(C)C)c1ccccc1)c1ccc(C#Cc2ccc(-c3cnc([C@@H]4CCCN4C(=O)[C@H](NC(=O)OC(C)(C)C)c4ccccc4)[nH]3)cc2)cc1` [Compound 169], the EC50 was in the range of 1 to 9.9 nM.
On to `COC(=O)N[C@H](C(=O)N1CCC[C@H]1c1ncc(-c2ccc(C#Cc3ccc4nc([C@@H]5CCCN5C(=O)[C@@H](NC(=O)OC)C5CCCC5)[nH]c4c3)cc2)[nH]1)C1CCCC1` [Compound 1025], for which the EC50 was below 1 nM.
Take `COC(=O)NC(C(=O)N1CCC[C@H]1c1nc2ccc(C#Cc3ccc4cc(-c5cnc([C@@H]6CCCN6C(=O)[C@@H](NC(=O)OC)C(C)C)[nH]5)ccc4n3)cc2[nH]1)C(C)C` (stereo partly drawn) [Compound 1107]: the EC50 is below 1 nM.
The same measure, in the same setting: the value for `CN(C)[C@@H](C(=O)N1CCC[C@H]1c1ncc(-c2ccc(C#Cc3cnc([C@@H]4CCCN4C(=O)[C@H](NC(=O)C4CC4)c4ccccc4)[nH]3)cc2)[nH]1)c1ccccc1` [Compound 131] was below 1 nM; that for `COC(=O)N[C@@H](Cc1c[nH]c2ccccc12)C(=O)N1CCC[C@H]1c1ncc(-c2ccc(C#Cc3ccc4nc([C@@H]5CCCN5C(=O)[C@H](Cc5c[nH]c6ccccc56)NC(=O)OC)[nH]c4c3)cc2)[nH]1` [Compound 1057] was below 1 nM; that for `COC(=O)NC1(C(=O)N2CCC[C@H]2c2ncc(-c3ccc(C#Cc4ccc5nc([C@@H]6CCCN6C(=O)C6(NC(=O)OC)CCCC6)[nH]c5c4)cc3)[nH]2)CCCC1` [Compound 1044] was 10 to 999 nM.
On the same count and under the same terms, the value for `COC(=O)N[C@@H](C)C(=O)N1CCC[C@H]1c1ncc(-c2ccc(C#Cc3ccc4nc([C@@H]5CCCN5C(=O)[C@H](C)NC(=O)OC)[nH]c4c3)cc2)[nH]1` [Compound 1028] was below 1 nM; that for `COC(=O)N[C@@H](C(=O)N1CCC[C@H]1c1ncc(-c2ccc(C#Cc3ccc(-c4cnc([C@@H]5CCCN5C(=O)[C@H](NC(=O)OC)c5ccccc5)[nH]4)c(F)c3)cc2)[nH]1)c1ccccc1` [Compound 1013] was below 1 nM; that for `COC(=O)N[C@H](C(=O)N1CC[C@H](O)[C@H]1c1ncc(-c2ccc(C#Cc3ccc4nc([C@@H]5CCCN5C(=O)[C@@H](NC(=O)OC)C(C)C)[nH]c4c3)cc2)[nH]1)C(C)C` [Compound 1068] was below 1 nM.
As for `CN1CCC[C@@H]1C(=O)N[C@@H](C(=O)N1CCC[C@H]1c1ncc(-c2ccc(C#Cc3ccc(-c4cnc([C@@H]5CCCN5C(=O)[C@H](NC(=O)C5CC5)c5ccccc5)[nH]4)cc3)cc2)[nH]1)c1ccccc1` [Compound 216], the EC50 is below 1 nM.
As to `COC(=O)N[C@@H](C(=O)N1CCC[C@H]1c1ncc(-c2ccc(C#Cc3ccc(-c4cnc([C@@H]5CCCN5C(=O)[C@H](NC(=O)OC)[C@H](C)OC)[nH]4)cc3)cc2)[nH]1)[C@H](C)OC` [Compound 977], the EC50 lay in the range of 10 to 999 nM.
On the same count and under the same terms, the value for `COC(=O)N[C@H](C(=O)N1CCC[C@H]1c1ncc(-c2ccc(C#Cc3ccc(-c4cnc([C@@H]5CCCN5C(=O)[C@H](NC(=O)N5CC[C@H](O)C5)c5ccccc5)[nH]4)cc3)cc2)[nH]1)C(C)C` [Compound 974] was below 1 nM; that for `O=C(N[C@@H](C(=O)N1CCC[C@H]1c1ncc(C#Cc2ccc(-c3ccc(-c4cnc([C@@H]5CCCN5C(=O)[C@H](NC(=O)N5CCOCC5)c5ccccc5)[nH]4)cc3)cc2)[nH]1)c1ccccc1)N1CCOCC1` [Compound 761] was below 1 nM; that for `CC(C)[C@@H](NC(=O)C1CC1)C(=O)N1CCC[C@H]1c1ncc(C#Cc2ccc(C#Cc3cnc([C@@H]4CCCN4C(=O)[C@H](NC(=O)C4CC4)C(C)C)[nH]3)cc2)[nH]1` [Compound 302] was above 1000 nM.
With `O=C([C@@H](c1ccccc1)N1CCOCC1)N1CCC[C@H]1c1ncc(-c2ccc(C#Cc3ccc(-c4cnc([C@@H]5CCCN5C(=O)[C@@H](c5ccccc5)N5CCOCC5)[nH]4)cc3)cc2)[nH]1` [Compound 184], the EC50 is below 1 nM.
Take `COC(=O)N[C@H](Cc1ccccc1)C(=O)N1CCC[C@H]1c1ncc(-c2ccc(C#Cc3ccc(-c4cnc([C@@H]5CCCN5C(=O)[C@H](NC(=O)OC)c5ccccc5)[nH]4)cc3)cc2)[nH]1` [Compound 180]: the EC50 was below 1 nM.
Turning to `O=C(Cc1cccnc1)N[C@@H](C(=O)N1CCC[C@H]1c1cc(-c2ccc(C#Cc3ccc(-c4cnc([C@@H]5CCCN5C(=O)[C@H](NC(=O)Cc5cccnc5)c5ccccc5)[nH]4)cc3)cc2)n[nH]1)c1ccccc1` [Compound 222], the EC50 is below 1 nM.
On to `COC(=O)N[C@@H](C(=O)N1CCC[C@H]1c1ncc(-c2ccc(C#Cc3ccc(-c4cnc([C@@H]5CCCN5C(=O)[C@H](NC(=O)N5CC[C@@H](O)C5)c5ccccc5)[nH]4)cc3)cc2)[nH]1)c1ccccc1` [Compound 268], for which the EC50 is below 1 nM.
The same measure, in the same setting: the figure for `COC(=O)N[C@H](C(=O)N1CCC[C@H]1c1nc2ccc(C#Cc3ccc(-c4cnc([C@@H]5CCCN5C(=O)[C@H](C(C)C)N(C)C)[nH]4)cc3)cc2[nH]1)C(C)C` [Compound 866] is below 1 nM.
As to `COC(=O)N[C@H](C(=O)N[C@@H](C)c1ncc(-c2ccc(C#Cc3ccc(-c4cnc([C@@H]5CCCN5C(=O)[C@@H](NC(=O)OC)[C@@H](C)O)[nH]4)cc3)cc2)[nH]1)[C@@H](C)O` [Compound 291], the EC50 is below 1 nM.
Same read-out and setting: the value for `COC(=O)N[C@H](C(=O)N1CCC[C@H]1c1nc2ccc(C#Cc3ccc(-c4cnc([C@@H]5CCCN5C(=O)[C@H](c5ccccc5)N(C)C)[nH]4)cc3)cc2[nH]1)C(C)C` [Compound 864] was below 1 nM.
As to `O=C(N[C@@H](C(=O)N1CCC[C@H]1c1ncc(C#Cc2ccc(-c3ccc(-c4cnc([C@@H]5CCCN5C(=O)[C@H](NC(=O)N5CC[C@H](O)C5)c5ccccc5)[nH]4)cc3)cc2)[nH]1)c1ccccc1)N1CC[C@H](O)C1` [Compound 762], the EC50 is below 1 nM.
For `CC(C)[C@@H](NC(=O)N1CCC(O)CC1)C(=O)N1CCC[C@H]1c1ncc(-c2ccc(C#Cc3ccc(-c4cnc([C@@H]5CCCN5C(=O)[C@H](NC(=O)N5CCC(O)CC5)C(C)C)[nH]4)cc3)cc2)[nH]1` [Compound 959], the EC50 is below 1 nM.
Regarding `COC(=O)N[C@H](C(=O)N[C@@H](C)c1nc2ccc(C#Cc3ccc(-c4cnc([C@@H]5CCCN5C(=O)[C@@H](NC(=O)OC)C(C)C)[nH]4)cc3)cc2[nH]1)C(C)C` [Compound 867], the EC50 is below 1 nM.
`O=C([C@@H](c1ccccc1)N1CCCC1)N1CCC[C@H]1c1ncc(-c2ccc(C#Cc3ccc(-c4cnc([C@@H]5CCCN5C(=O)[C@@H](c5ccccc5)N5CCCC5)[nH]4)cc3)cc2)[nH]1` [Compound 194]: the EC50 was below 1 nM.

The same assay, now with this note: Hepatitis C virus, Huh-7, read-out: Inhibition of HCV genotype 1b.
On to `COC(=O)N[C@H](C(=O)N1CCC[C@H]1c1nc2ccc3cc(C#Cc4ccc5nc([C@@H]6CCCN6C(=O)[C@@H](NC(=O)OC)C6CCOCC6)[nH]c5c4)ccc3c2[nH]1)C(C)C` [Compound 1274], for which the EC50 is below 1 nM.
Turning to `CC[C@H](C)[C@H](NC(=O)OC)C(=O)N1CCC[C@H]1c1ncc(-c2ccc(C#Cc3ccc4nc([C@@H]5CCCN5C(=O)[C@@H](NC(=O)OC)[C@@H](C)OC)[nH]c4c3)cc2)[nH]1` [Compound 1248], the EC50 was below 1 nM.
Take `COC(=O)N[C@H](C(=O)N1CCC[C@H]1c1ncc(-c2ccc(C#Cc3ccc(-c4cnc([C@@H]5CCCN5C(=O)[C@@H](NC(=O)OC)C(C)C)[nH]4)cc3C(=O)OC)cc2)[nH]1)C(C)C` [Compound 1200]: the EC50 is below 1 nM.
Regarding `COC(=O)N[C@H](C(=O)N1CCC[C@H]1c1ncc(-c2ccc3cc(C#Cc4[nH]c([C@@H]5CCCN5C(=O)[C@@H](NC(=O)OC)[C@@H](C)OC)nc4C(F)(F)F)ccc3c2)[nH]1)[C@@H](C)OC` [Compound 1255], the EC50 is below 1 nM.
Turning to `COC(=O)N[C@H](C(=O)N1CCC[C@H]1c1nc2ccc(C#Cc3ccc4c(ccc5nc([C@@H]6CCCN6C(=O)[C@@H](NC(=O)OC)[C@@H](C)OC)[nH]c54)c3)cc2[nH]1)C(C)C` [Compound 1286], the EC50 is below 1 nM.
As for `COC(=O)N[C@H](C(=O)N1CCC[C@H]1c1nc(C#N)c(C#Cc2ccc3cc(-c4cnc([C@@H]5CCCN5C(=O)[C@@H](NC(=O)OC)[C@@H](C)OC)[nH]4)ccc3c2)[nH]1)C(C)C` [Compound 1268], the EC50 was below 1 nM.
Take `COC(=O)N[C@H](C(=O)N1CCC[C@H]1c1ncc(-c2ccc(C#Cc3ccc(-c4cnc([C@@H]5CCCN5C(=O)[C@@H](NC(=O)OC)C5CCOCC5)[nH]4)cc3)cc2)[nH]1)C1CCOCC1` [Compound 1218]: the EC50 is below 1 nM.
Still for that read-out and setting: the figure for `COC(=O)N[C@H](C(=O)N1CCC[C@H]1c1ncc(-c2ccc(C#Cc3ccc4nc([C@@H]5CCCN5C(=O)[C@@H](NC(=O)OC)[C@@H](C)OC)[nH]c4n3)cc2)[nH]1)[C@@H](C)OC` [Compound 1252] is below 1 nM.
As to `COC(=O)N[C@H](C(=O)N1CCC[C@H]1c1ncc(-c2ccc(C#Cc3ccc(-c4cnc([C@@H]5CN(C(=O)OC)CCN5C(=O)[C@@H](NC(=O)OC)C(C)C)[nH]4)cc3)cc2)[nH]1)C(C)C` [Compound 1204], the EC50 was below 1 nM.

For the origin of these results see US20130296311A1, “INHIBITORS OF HCV NS5A” (PRESIDIO PHARMACEUTICALS, INC., priority 2010, published 2013).
